Columns and labels:
[1] = tested on: Phospho-Rb (Ser807/811) in SW1573-CDK4 KO cells; assay: Phospho-Rb expression inhibition in SW1573-CDK4 KO cells quantified by in cell Western; assay type: cell-based; settings: Homo sapiens, 24 hours, read-out: SW1573 CDK4 KO pRb IC50
Protocol: Parental SW1573 cells were obtained from the American Type Culture Collection (ATCC). CDK4 or CDK6 gene in […] cells was knocked out using the CRISPR-Cas9 technology. First, gRNA complex of CDK4 or CDK6 was prepared with Alt-R CRISPR-Cas9 tracrRNA and crRNA CDK4 (5′-[…]-3′ (SEQ ID NO: 4)) or CDK6 (5′-[…]-3′ (SEQ ID NO. 5)) (IDT-Integrated DNA Technologies), and then ribonucleoprotein (RNP) complex of CDK4 or CDK6 was prepared with respective gRNA complex and Alt-R S.p. Cas9 Nuclease V3 (IDT-Integrated DNA Technologies). Next, 5×10^4/10 μL SWJ1573 cells were electroporated with the CDK4 or CDK6 RNP complex and Alt-R Cas9 Electroporation Enhancer using Neon Transfection System (Thermo Fisher). Cells were then plated in a 96-well plate to select single clones for validation of CDK4 or CDK6 knockout by western blot analysis.
MCF7 cells were obtained from American Type Culture Collection (ATCC, HTB-22). SW1573-CDK6 KO and SW1573-CDK4 KO cells were generated by the CRISPR-Cas9 technology. All cells were plated in 96-well plates (VWR #10062-900, or Corning #3904) in 90 uL culture medium at a density of 20,000 cells/well in the respective growth medium containing 10% FBS and 1% Penicillin Streptomycin, and then incubated at 37° C. overnight. The following day, the test compound was administered to the cells by using 1000× compound stock solution prepared in DMSO at various concentrations. 1000× compound stock solution was first diluted in culturing medium to 10×, then 10 uL compound medium was added to each well in the cell plates. After administration of the compound, the cells were then incubated at 37° C. for 24 hours. Upon completion, the cells were washed with PBS briefly. 150 uL/well of 4% formaldehyde was added and the plates were incubated at room temperature for 20 mins. The cells were washed with PBS briefly, and permeabilized with 150 uL/well of ice cold 100% methanol for 10 mins. The cells were washed with PBS briefly and blocked with 100 uL/well LI-COR blocking buffer for 1 hr at room temperature with gentle shaking. The cells were incubated overnight at 4° C. with 50 uL primary antibody rabbit anti-Phospho-Rb (Ser807/811) (1: 500, Cell Signaling, #8516) and anti-Rb (1:200, Santa Cruz, sc-73598) diluted in Intercept Blocking Buffer (LI-COR, #927-60001) containing 0.1% Tween 20. The next day, the cells were washed with 200 uL PBS containing 0.1% Tween 20, 5×5 mins at room temperature with gentle shaking, and incubated with 50 uL secondary antibody, IRDye® 800CW Goat anti-Rabbit IgG (1:1000, LI-COR, #926-32211) and IRDye®680RD Goat anti-Mouse IgG (1:1000, LI-COR, #926-68070), in LI-COR blocking buffer with 0.2% Tween 20 for 1 hr at room temperature with gentle shaking. The cells were washed with 200 uL PBS containing 0.1% Tween 20, 5×5 mins at room temperature with gentle shaking. The cells were washed with PBS for 5 mins. 100 uL fresh PBS was added to each well and the plates were imaged on a LI-COR Odyssey CLX plate reader.

[2] = tested on: 22RV1 cells; assay: Cell growth inhibition of 22RV1 cells (CellTiter-Glo); assay type: cell-based; settings: Homo sapiens, 22Rv1, 120 h, 5 days, CellTiter-Glo, read-out: 22RV1 Cell Growh GI50
Summary of the method: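 22RV1 cells were plated in RPMI1640 with FBS (20% in one version, 10% in the other) and dosed next day at various concentrations from DMSO stocks. After 5 days at 37 °C, viability was measured by CellTiter-Glo luminescence.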

| IC50 [1] | GI50 [2] | SMILES |
| --- | --- | --- |
| > 1000 nM | 120 to 450 nM | Cc1nc2c(F)cc(-c3nc(N[C@@H]4C[C@H]5CO[C@H](O5)[C@H]4O)ncc3Cl)cc2n1C(C)C [Compound 25, (1S,3R,4S,5R)-3-((5-chloro-4-(4-fluoro-1-isopropyl-2-methyl-1H-benzo[d]imidazol-6-yl)pyrimidin-2-yl)amino)-6,8-dioxabicyclo[3.2.1]octan-4-ol] |
| > 1000 nM | 450 to 3000 nM | Cc1c(C)n(C(C)C)c2cc(-c3nc(N[C@@H]4C[C@H]5CO[C@H](O5)[C@H]4O)ncc3Cl)ccc2c1=O [Compound 191, 7-(5-chloro-2-(((1S,3R,4S,5R)-4-hydroxy-6,8-dioxabicyclo[3.2.1]octan-3-yl)amino)pyrimidin-4-yl)-1-isopropyl-2,3-dimethylquinolin-4(1H)-one] |
| > 1000 nM | 120 to 450 nM | CNCc1c(C)c(=O)c2ccc(-c3nc(N[C@@H]4C[C@H]5CO[C@H](O5)[C@H]4O)ncc3F)cc2n1C(C)C [Compound 194, 7-(5-fluoro-2-(((1S,3R,4S,5R)-4-hydroxy-6,8-dioxabicyclo[3.2.1]octan-3-yl)amino)pyrimidin-4-yl)-1-isopropyl-3-methyl-2-((methylamino)methyl)quinolin-4(1H)-one] |
| > 1000 nM | 120 to 450 nM | Cc1c(CN(C)C)n(C(C)C)c2cc(-c3nc(N[C@@H]4C[C@H]5CO[C@H](O5)[C@H]4O)ncc3F)ccc2c1=O [Compound 195, 2-((dimethylamino)methyl)-7-(5-fluoro-2-(((1S,3R,4S,5R)-4-hydroxy-6,8-dioxabicyclo [3.2.1]octan-3-yl)amino)pyrimidin-4-yl)-1-isopropyl-3-methylquinolin-4(1H)-one] |
| > 1000 nM | 120 to 450 nM | Cc1c(CN2CCC2)n(C(C)C)c2cc(-c3nc(N[C@@H]4C[C@H]5CO[C@H](O5)[C@H]4O)ncc3F)ccc2c1=O [Compound 196, 2-(azetidin-1-ylmethyl)-7-(5-fluoro-2-(((1S,3R,4S,5R)-4-hydroxy-6,8-dioxabicyclo[3.2.1]octan-3-yl)amino)pyrimidin-4-yl)-1-isopropyl-3-methylquinolin-4(1H)-one] |
| > 1000 nM | 120 to 450 nM | Cc1c(CN2CC(F)C2)n(C(C)C)c2cc(-c3nc(N[C@@H]4C[C@H]5CO[C@H](O5)[C@H]4O)ncc3F)ccc2c1=O [Compound 197, 7-(5-fluoro-2-(((1S,3R,4S,5R)-4-hydroxy-6,8-dioxabicyclo[3.2.1]octan-3-yl)amino)pyrimidin-4-yl)-2-((3-fluoroazetidin-1-yl)methyl)-1-isopropyl-3-methylquinolin-4(1H)-one] |
| 150 to 1000 nM | ≤ 120 nM | Cc1c(CN2[C@@H](C)COC[C@@H]2C)n(C(C)C)c2cc(-c3nc(N[C@@H]4C[C@H]5CO[C@H](O5)[C@H]4O)ncc3F)ccc2c1=O [Compound 199, 2-(((3S,5S)-3,5-dimethylmorpholino)methyl)-7-(5-fluoro-2-(((1S,3R,4S,5R)-4-hydroxy-6,8-dioxabicyclo[3.2.1]octan-3-yl)amino)pyrimidin-4-yl)-1-isopropyl-3-methylquinolin-4(1H)-one] |
| > 1000 nM | 120 to 450 nM | CC(C)n1c(CN2[C@@H](C)COC[C@@H]2C)c(F)c(=O)c2ccc(-c3nc(N[C@@H]4C[C@H]5CO[C@H](O5)[C@H]4O)ncc3Cl)cc21 [Compound 201, 7-(5-chloro-2-(((1S,3R,4S,5R)-4-hydroxy-6,8-dioxabicyclo[3.2.1]octan-3-yl)amino)pyrimidin-4-yl)-2-(((3S,5S)-3,5-dimethylmorpholino)methyl)-3-fluoro-1-isopropylquinolin-4(1H)-one] |
| > 1000 nM | 450 to 3000 nM | CC(C)n1c(CN2CC[C@@H](F)C2)c(F)c(=O)c2ccc(-c3nc(N[C@@H]4C[C@H]5CO[C@H](O5)[C@H]4O)ncc3F)cc21 [Compound 202, 3-fluoro-7-(5-fluoro-2-(((1S,3R,4S,5R)-4-hydroxy-6,8-dioxabicyclo[3.2.1]octan-3-yl)amino)pyrimidin-4-yl)-2-(((R)-3-fluoropyrrolidin-1-yl)methyl)-1-isopropylquinolin-4(1H)-one] |
| > 1000 nM | 120 to 450 nM | CC(C)n1c(CN2[C@@H](C)COC[C@@H]2C)c(C(F)F)c(=O)c2ccc(-c3nc(N[C@@H]4C[C@H]5CO[C@H](O5)[C@H]4O)ncc3Cl)cc21 [Compound 204, 7-(5-chloro-2-(((1S,3R,4S,5R)-4-hydroxy-6,8-dioxabicyclo[3.2.1]octan-3-yl)amino)pyrimidin-4-yl)-3-(difluoromethyl)-2-(((3S,5S)-3,5-dimethylmorpholino)methyl)-1-isopropylquinolin-4(1H)-one] |
| > 1000 nM | 120 to 450 nM | CC(C)n1c(CN2[C@@H](C)COC[C@@H]2C)cc(=O)c2ccc(-c3nc(N[C@@H]4C[C@H]5CO[C@H](O5)[C@H]4O)ncc3Cl)cc21 [Compound 205, 7-(5-chloro-2-(((1S,3R,4S,5R)-4-hydroxy-6,8-dioxabicyclo[3.2.1]octan-3-yl)amino)pyrimidin-4-yl)-2-(((3S,5S)-3,5-dimethylmorpholino)methyl)-1-isopropylquinolin-4(1H)-one] |
| 150 to 1000 nM | ≤ 120 nM | Cc1c(CN2[C@@H](C)COC[C@@H]2C)n(C(C)C)c2cc(-c3nc(N[C@@H]4C[C@H]5CO[C@H](O5)[C@H]4O)ncc3Cl)ccc2c1=O [Compound 206, 7-(5-chloro-2-(((1S,3R,4S,5R)-4-hydroxy-6,8-dioxabicyclo[3.2.1]octan-3-yl)amino)pyrimidin-4-yl)-2-(((3S,5S)-3,5-dimethylmorpholino)methyl)-1-isopropyl-3-methylquinolin-4(1H)-one] |
| 150 to 1000 nM | ≤ 120 nM | CC(C)n1c([C@@H]2CC2(F)F)nc2c(F)cc(-c3nc(N[C@@H]4C[C@H]5CO[C@H](O5)[C@H]4O)ncc3Cl)cc21 [Compound 216, (1S,3R,4S,5R)-3-((5-chloro-4-(2-((S)-2,2-difluorocyclopropyl)-4-fluoro-1-isopropyl-1H-benzo[d]imidazol-6-yl)pyrimidin-2-yl)amino)-6,8-dioxabicyclo[3.2.1]octan-4-ol] |
| 40 to 150 nM | ≤ 120 nM | Cc1c(-c2nc(N[C@@H]3C[C@H]4CO[C@H](O4)[C@H]3O)ncc2Cl)sc2c(C(C)C)cn(C)c(=O)c12 [Compound 223, 2-(5-chloro-2-(((1S,3R,4S,5R)-4-hydroxy-6,8-dioxabicyclo[3.2.1]octan-3-yl)amino)pyrimidin-4-yl)-7-isopropyl-3,5-dimethylthieno[3,2-c]pyridin-4(5H)-one] |
| 150 to 1000 nM | ≤ 120 nM | Cc1c(-c2nc(N[C@@H]3C[C@H]4CO[C@H](O4)[C@H]3O)ncc2C(F)F)sc2c(C(C)C)cn(C)c(=O)c12 [Compound 227, 2-(5-(difluoromethyl)-2-(((1S,3R,4S,5R)-4-hydroxy-6,8-dioxabicyclo[3.2.1]octan-3-yl)amino)pyrimidin-4-yl)-7-isopropyl-3,5-dimethylthieno[3,2-c]pyridin-4(5H)-one] |
| 150 to 1000 nM | 120 to 450 nM | CCn1cc(C(C)C)c2sc(-c3nc(N[C@@H]4C[C@H]5CO[C@H](O5)[C@H]4O)ncc3Cl)c(C)c2c1=O [Compound 230, 5-ethyl-2-(5-chloro-2-(((1S,3R,4S,5R)-4-hydroxy-6,8-dioxabicyclo[3.2.1]octan-3-yl)amino)pyrimidin-4-yl)-7-isopropyl-3-methylthieno[3,2-c]pyridin-4(5H)-one] |
